In brackets after ≈: the same amount, converted by molar mass. Several values for one entry are separate records, joined by “and”; a condition that tells them apart may be missing. Equal entries are not always repeated.
What was measured:
[1] = tested on: C. uniguttulatus ATCC 34143; assay: Broth macrodilution MIC/MFC; type: cell-based, Cryptococcus uniguttulatus
Method: (§1) TMPN was screened against yeasts by the broth macrodilution assay according to the NCCLS [7]. Yeasts were suspended and diluted as recommended to yield final inocula ranging from 0.5-2.5×10^3 cfu/ml. Tests were performed in sterile 12 by 75 mm plastic tubes containing two-fold dilutions of TMPN in 0.165 M morpholinepropanesulfonic acid buffered RPMI 1640 medium (pH 7.0). One tube was again left drug free (but contained an equivalent volume of DMSO) for a turbidity control. Tubes were incubated without agitation at the appropriate temperature (see Fungal Strains section above). MICs were determined after 72 h for Cryptococcus and after 48 h for other yeast genera. The MIC was defined as the lowest concentration of TMPN that inhibited all visible growth of the test organism (optically clear).
(§2) Minimum fungicidal concentrations (MFCs) were determined by subculturing 0.1 ml from each tube with no visible growth in the MIC broth macrodilution series onto the appropriate drug-free plates (see Fungal Strains section above).

[2] = tested on: C. uniguttulatus ATCC 66033; assay: Broth macrodilution MIC/MFC; type: cell-based, Cryptococcus uniguttulatus
Method: as §1, §2

[3] = tested on: C. guilliermondii (9); assay: Broth macrodilution MIC/MFC; type: cell-based, Candida guilliermondii
Method: as §1, §2

[4] = tested on: Paecilomyces lilacinus (1); assay: Broth macrodilution MIC/MFC, filamentous fungi; type: cell-based
Method: (§3) Susceptibility testing of filamentous fungi was also conducted. Broth macrodilution susceptibility testing of P. lilacinus, Rhizopus spp. and Aspergillus spp. was performed in accordance with a proposed standardized procedure with slight modification. To induce conidium and sporangiospore formation, fungi were grown on PDA slants at 35° C. for 6 days (P. lilacinus, Rhizopus spp., all Aspergillus species except A. nidulans) or 3 days (A. nidulans). Fungal slants were covered with sterile 0.85% NaCl (P. lilacinus, Rhizopus spp., all Aspergillus species except A. nidulans) or 0.05% Tween 80 (A. nidulans), and suspensions were made by gently probing the colonies with the tip of a sterile Pasteur pipette. The resulting mixture of hyphal fragments and conidia or sporangiospores was withdrawn and transferred to a sterile clear microcentrifuge tube, and heavy particles were allowed to settle for 10 min. The upper homogenous suspension was transferred to a sterile microcentrifuge tube, vortexed for 15 s, adjusted spectrophotometrically, and diluted in sterile 0.165 M MOPS-buffered RPMI medium, pH 7.0, to yield final inocula ranging from 0.5-2.5×10^3 cfu/ml. Susceptibility to TMPN was then determined by broth macrodilution as described above for yeast isolates. MICs were read after 48 h The MIC was defined as the lowest concentration of TMPN that inhibited all visible growth of the test organism (optically clear).
as §2

[5] = tested on: Rhizopus oligosporus ATCC 22959; assay: Broth macrodilution MIC/MFC, filamentous fungi; type: cell-based
Method: as §3, §2

[6] = tested on: T1, bovine brain tubulin; assay: Tubulin polymerization assay; type: biochemical; settings: 1 mg/ml tubulin; 20 min incubation at 30° C.
T1 construct: Electrophoretically homogeneous bovine brain tubulin [12]
Method: Electrophoretically homogeneous bovine brain tubulin [12] was used in studies to evaluate the effects of TMPN on in vitro tubulin polymerization and the binding of […] (Dupont-NEN) to tubulin. These studies were performed as described previously. In the polymerization assay, varying drug concentrations were added to 1 mg/ml tubulin to determine the amount of drug that would inhibit the extent of the reaction by 50% (20 min incubation at 30° C.) (IC50 value). In the colchicine binding assay, the effect of varying drug concentrations on the binding of 2 μg/ml colchicine to 100 μg/ml tubulin was measured after 10 min at 37° C. (control reaction about 50% complete).

COc1cc(C=C[N+](=O)[O-])cc(OC)c1OC [TMPN, 1-(3′,4′,5′-trimethoxyphenyl)-2-nitro-ethylene]
MFC Range [1]: 16 µg/mL (≈ 66.9 µM)
MIC Range [1]: 8 µg/mL (≈ 33.4 µM)
MFC Range [2]: 32 µg/mL (≈ 134 µM)
MIC Range [2]: 16 µg/mL (≈ 66.9 µM)
MFC Range [3]: >64 µg/mL
MFC Range [4]: 64 µg/mL (≈ 268 µM)
MIC Range [4]: 32 µg/mL (≈ 134 µM)
MFC Range [5]: >64 µg/mL
MIC Range [5]: 8 µg/mL (≈ 33.4 µM)
IC50 for inhibition of the extent of tubulin assembly [6]: 0.60 µg/mL and 0.60 ± 0.07 µg/mL

— patent publication US20050014849A1, “Antifungal phenylethylene” (priority 2001, published 2005)
